The record followed here is PMC8341910, “Structural and biophysical insights into the mode of covalent binding of rationally designed potent BMX inhibitors” (RSC Chemical Biology, 2020).

Broadly, the IC50 is the concentration at which inhibition is half-maximal. The term ΔTm denotes the shift of the melting midpoint relative to a reference. What is called GI50 is the concentration giving 50% growth inhibition. One may read the Papp as the rate of passage across a membrane or cell layer, normalised by area and donor concentration. The term koff denotes the rate constant with which the complex falls apart. A higher koff goes with a short-lived complex. For orientation: kon means a measure of how fast the partners come together.

Values after ≈ are worked out from the molar mass of the structure shown. Read-outs that look alike come from different tables or passages of the source.

The target of one data set is T1, BMX (Homo sapiens, UniProt P51813).
T1 sequence (P51813 1-675): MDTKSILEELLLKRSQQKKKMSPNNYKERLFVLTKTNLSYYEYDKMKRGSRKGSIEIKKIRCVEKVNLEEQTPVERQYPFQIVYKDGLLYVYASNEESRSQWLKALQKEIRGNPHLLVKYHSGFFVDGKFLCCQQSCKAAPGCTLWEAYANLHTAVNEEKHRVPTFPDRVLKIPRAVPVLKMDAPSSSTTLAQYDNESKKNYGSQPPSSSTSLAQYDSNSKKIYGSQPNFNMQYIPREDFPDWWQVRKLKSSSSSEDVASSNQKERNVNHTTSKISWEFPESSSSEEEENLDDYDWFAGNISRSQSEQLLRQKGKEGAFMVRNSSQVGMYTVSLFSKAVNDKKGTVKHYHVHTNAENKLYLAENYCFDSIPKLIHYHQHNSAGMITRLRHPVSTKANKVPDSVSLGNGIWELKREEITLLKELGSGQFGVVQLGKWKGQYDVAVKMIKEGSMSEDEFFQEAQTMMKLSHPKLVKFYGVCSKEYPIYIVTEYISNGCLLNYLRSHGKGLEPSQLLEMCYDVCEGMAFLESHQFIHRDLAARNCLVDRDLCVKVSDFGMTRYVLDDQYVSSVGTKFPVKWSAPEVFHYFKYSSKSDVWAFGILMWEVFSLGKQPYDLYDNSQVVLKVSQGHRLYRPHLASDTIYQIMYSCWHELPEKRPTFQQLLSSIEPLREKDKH
Nature of the data set: BMX biochemical activity assay (HTRF, phosphorylation of a biotinylated peptide). A general note: In TR-FRET formats the signal depends on donor and acceptor labels being close together.

The nature of data set [1]: Dynamic light scattering, colloidal aggregation. It counts as physicochemical. To be noted: deionized and filtered water (0.1% DMSO), kinetic from dmso stock, measured at 10 µM, 1 µM and 100 nM, 25 °C, read-out: DLS maximum soluble concentration at which no aggregates are observed.
Protocol: In addition, we measured particle sizes by using dynamic light scattering (DLS).
DLS is measured at 10 µM, 1µM and 100 nM. The maximum soluble
concentration – at which no aggregates are observed - is indicated and the colour code indicates
Dynamic Light Scattering:
Dynamic light scattering (Zetasizer Nano S, Malvern, UK) was used to determine compound colloidal aggregation. […] A 10 mM stock solution of
test compounds was prepared in DMSO, following dilution to deionized and filtered water to
obtain an analyte solution of 10 μM (0.1% DMSO). Colloidal aggregation was measured
through sequential dilutions at 10 μM, 1 μM and 0.1 μM.
Data set [2] has as its target T2, recombinant human BMX protein (hBMX) (Homo sapiens, UniProt P51813).
T2 construct: Crystallization, data collection, and structure determination of BMX catalytic domain in; made in house; host or cells: Sf-9 insect cells
Briefly: Differential scanning fluorimetry (DSF). It is filed as binding. To be noted: for Average Tm of BMX with compound: apo-BMX Tm 51.8-52.2 °C; for ΔTm at 100 µM: read-out: ΔTm. On the technique in general: Differential scanning fluorimetry follows unfolding on heating by fluorescence.
Protocol: We further characterized the binding interaction between JS24–JS27 and BMX by using differential scanning fluorimetry (DSF) and surface plasmon resonance (SPR). Purified recombinant human BMX protein (hBMX) was first subjected to thermal scanning in the absence and presence of JS24–JS27, and the respective protein melting temperature (Tm) calculated.
Differential Scanning Fluorimetry:
DSF was performed in MicroAmp™ EnduraPlate™ Optical 96 -Well Clear Reaction Plates
with Barcode (Applied Biosystems, Life Technologies, California, USA) using a QuantStudio
7 Flex Real-Time PCR System (Applied Biosystems). Pre-incubation of the protein with the
compound for 2 hours at 4 °C was required prior to DSF experiments. The final reaction mixture
(20 μL of total volume) contained 4 μg of His6-BMX, 4-fold of Protein Thermal Shift™ Dye
(Applied Biosystems) diluted in protein buffer solution, and 100 μM of compound. The
temperatures were obtained by taking the midpoint of each transition.

Data set [3] concerns LNCaP cells. Briefly: LNCaP cell growth assay (CellTiter-Glo, 96 h). It counts as cell-based. To be noted: Homo sapiens, read-out: GI50 LNCaP. For orientation: ATP-based viability assays read luminescence as a measure of living cells.
Protocol: (§1) GI50 values are reported in μM and are the mean of three individual experiments performed in triplicate. N.d., non-determined, no growth inhibition observed within the concentrations tested.
(§2) Cellular activity Assay: LNCaP and PC-3 Cell Growth Assay
(§3) Cells were seeded in white, opaque-bottom 96-well plates at 5000 cells/well (LNCaP) or 2000 cells/well (PC-3) in a total volume of 100 µL of culture media.
(§4) fold) in 100 µL media were added to the cells 24 hours later. After 96 hours incubation cellular viability was assessed by CellTiter-Glo® (Promega) according to the manufacturer’s instructions. The values were normalized to vehicle and IC50 was calculated using GraphPad
The subject of the next data set is PC3 cells. Nature of the data set: PC-3 cell growth assay (CellTiter-Glo, 96 h). It is filed as cell-based. To be noted: Homo sapiens, read-out: GI50 PC3.
For data set [4], the system named is LNCaP cells. Briefly: Anti-proliferative co-treatment assays in LNCaP. To be noted: JS24 3 μM, JS25 5 μM, JS26 6 μM, 5 days; for cell viability reduction: co-treatment with Flutamide (50 μM). It counts as cell-based.
For data set [5] the following is noted: pH 6.8.
A short description of a further data set: in vitro. To be noted: PAMPA.
The next data set has as its target EGFR (Homo sapiens, UniProt P00533). Nature of the data set: KINOMEscan binding. To be noted: read-out: % Ctrl EGFR.
The target of a further data set is ERBB3 (Homo sapiens, UniProt P21860). Nature of the data set: KINOMEscan binding. To be noted: read-out: % Ctrl ERBB3.
Chain of ERBB3 (P21860 20-1342): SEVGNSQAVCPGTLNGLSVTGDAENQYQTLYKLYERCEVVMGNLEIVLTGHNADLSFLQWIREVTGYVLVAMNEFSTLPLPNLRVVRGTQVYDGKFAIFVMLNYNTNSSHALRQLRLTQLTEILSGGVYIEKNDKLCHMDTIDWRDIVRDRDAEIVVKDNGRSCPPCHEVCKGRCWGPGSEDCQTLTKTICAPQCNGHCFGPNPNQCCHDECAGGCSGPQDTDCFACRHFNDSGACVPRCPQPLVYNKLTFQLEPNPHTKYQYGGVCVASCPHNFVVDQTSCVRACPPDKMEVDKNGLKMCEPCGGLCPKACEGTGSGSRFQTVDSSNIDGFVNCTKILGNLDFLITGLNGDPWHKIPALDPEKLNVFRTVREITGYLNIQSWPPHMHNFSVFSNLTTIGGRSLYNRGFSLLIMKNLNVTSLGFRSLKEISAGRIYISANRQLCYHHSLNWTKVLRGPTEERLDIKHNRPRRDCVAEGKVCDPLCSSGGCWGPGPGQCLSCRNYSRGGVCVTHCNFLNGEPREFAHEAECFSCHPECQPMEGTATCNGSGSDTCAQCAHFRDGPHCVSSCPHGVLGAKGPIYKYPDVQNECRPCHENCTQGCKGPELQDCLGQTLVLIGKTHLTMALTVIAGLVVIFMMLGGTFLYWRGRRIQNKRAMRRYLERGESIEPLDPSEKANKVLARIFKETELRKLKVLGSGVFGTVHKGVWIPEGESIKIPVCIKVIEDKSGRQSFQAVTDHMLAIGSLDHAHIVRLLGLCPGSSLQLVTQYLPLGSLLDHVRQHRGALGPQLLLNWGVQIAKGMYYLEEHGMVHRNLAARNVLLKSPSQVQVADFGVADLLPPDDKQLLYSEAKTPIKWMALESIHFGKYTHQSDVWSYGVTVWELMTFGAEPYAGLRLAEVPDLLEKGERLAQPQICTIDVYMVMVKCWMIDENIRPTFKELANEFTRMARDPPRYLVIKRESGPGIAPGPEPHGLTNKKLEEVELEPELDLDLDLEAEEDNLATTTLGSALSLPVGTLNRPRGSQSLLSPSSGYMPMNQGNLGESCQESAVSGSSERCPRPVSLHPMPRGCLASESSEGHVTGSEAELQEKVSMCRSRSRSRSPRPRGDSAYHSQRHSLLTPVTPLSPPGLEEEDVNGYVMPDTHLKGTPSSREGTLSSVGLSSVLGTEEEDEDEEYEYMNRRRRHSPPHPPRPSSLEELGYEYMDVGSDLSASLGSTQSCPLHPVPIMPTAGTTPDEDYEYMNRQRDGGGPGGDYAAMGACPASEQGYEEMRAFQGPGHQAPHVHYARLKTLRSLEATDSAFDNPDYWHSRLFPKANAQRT
The next data set deals with ERBB4 (Homo sapiens, UniProt Q15303). Nature of the data set: KINOMEscan binding. To be noted: read-out: % Ctrl ERBB4.
The target in data set [6] is JAK3(JH1domain-catalytic) (Homo sapiens, UniProt P52333). Briefly: KINOMEscan binding. To be noted: read-out: % Ctrl JAK3(JH1domain-catalytic).
Chain of JAK3(JH1domain-catalytic) (P52333 814-1124 limits assumed): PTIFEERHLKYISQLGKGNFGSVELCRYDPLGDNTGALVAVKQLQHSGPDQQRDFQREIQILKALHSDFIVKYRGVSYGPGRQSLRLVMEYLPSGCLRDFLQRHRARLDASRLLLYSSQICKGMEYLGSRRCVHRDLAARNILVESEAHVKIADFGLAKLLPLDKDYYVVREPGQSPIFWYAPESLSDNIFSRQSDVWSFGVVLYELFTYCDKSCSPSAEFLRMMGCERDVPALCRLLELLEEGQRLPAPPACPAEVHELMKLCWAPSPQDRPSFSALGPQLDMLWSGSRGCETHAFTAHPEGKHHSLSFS
Protocol: (§5) Therefore, we included the whole TEC, EGFR and JAK family in our screening, and the Src family and Lkb1, which also have a cysteine within the same sequence alignment. We also included kinases involved in upstream (Src, FAK, PI3K, mTOR, PDK1) and downstream (Akt, PAK1, TAM) regulation of BMX signaling pathway and non-receptor tyrosine protein kinase Abl.
(§6) Kinome selectivity was performed with DiscoverX KINOMEscan™ technology.
The next data set has as its target LCK (Homo sapiens, UniProt P06239). Briefly: KINOMEscan binding. To be noted: read-out: % Ctrl LCK.
In another data set the target is MTOR (Homo sapiens, UniProt P42345). Briefly: KINOMEscan binding. To be noted: read-out: % Ctrl MTOR.
The next data set addresses AKT2 (Homo sapiens, UniProt P31751). Briefly: KINOMEscan binding. To be noted: read-out: % Ctrl AKT2.
For the next data set, the target named is BTK (Homo sapiens, UniProt Q06187). Briefly: BTK biochemical activity assay (radiometric, KinaseProfiler). Details: purchased Eurofins DiscoverX KinaseProfiler (contract assay). To be noted: for IC50: duplicate, mean ± S.D., read-out: BTK inhibition IC50.
Chain of BTK (Q06187 whole entry, species assumed): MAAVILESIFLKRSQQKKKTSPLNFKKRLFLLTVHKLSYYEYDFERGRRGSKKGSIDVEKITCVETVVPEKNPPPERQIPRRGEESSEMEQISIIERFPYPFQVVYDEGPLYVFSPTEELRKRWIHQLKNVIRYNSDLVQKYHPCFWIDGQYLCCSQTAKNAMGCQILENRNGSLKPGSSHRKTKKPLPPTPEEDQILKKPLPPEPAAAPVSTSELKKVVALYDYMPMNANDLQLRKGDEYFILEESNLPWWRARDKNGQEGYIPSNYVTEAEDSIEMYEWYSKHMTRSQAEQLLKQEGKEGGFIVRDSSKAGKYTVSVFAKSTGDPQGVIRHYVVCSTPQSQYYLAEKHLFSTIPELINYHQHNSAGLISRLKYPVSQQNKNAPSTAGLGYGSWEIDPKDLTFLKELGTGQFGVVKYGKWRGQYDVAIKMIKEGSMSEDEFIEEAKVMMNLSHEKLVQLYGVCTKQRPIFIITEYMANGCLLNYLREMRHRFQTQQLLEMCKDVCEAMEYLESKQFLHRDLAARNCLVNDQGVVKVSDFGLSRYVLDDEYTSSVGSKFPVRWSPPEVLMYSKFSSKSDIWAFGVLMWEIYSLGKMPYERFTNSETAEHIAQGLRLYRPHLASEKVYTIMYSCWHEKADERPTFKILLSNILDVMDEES
Another data set has as its target T3, His6-hsBMX (Homo sapiens, UniProt P51813).
T3 construct: Crystallization, data collection, and structure determination of BMX catalytic domain in; made in house; host or cells: Sf-9 insect cells
Briefly: Surface plasmon resonance (SPR). To be noted: 1:1 Langmuir fit, 25 °C. It counts as binding.

The next data set relates to Kasumi. Briefly: Multi cell line growth assay (CellTiter-Glo, 72 h). It counts as cell-based, human. To be noted: Homo sapiens, Blood, ND = no growth inhibition observed.
The mark [7] stands for this setting: Experiment 4 of Fig. S3 = Fig. 1b, duplicate, mean ± S.D., read-out: BMX inhibition IC50.
Where [8] appears, read: co-treatment with LY294002 (3 μM).
Setting [9] is: pH 6.8, PAMPA/Pe effective permeability.

Chain of EGFR (P00533 25-1210): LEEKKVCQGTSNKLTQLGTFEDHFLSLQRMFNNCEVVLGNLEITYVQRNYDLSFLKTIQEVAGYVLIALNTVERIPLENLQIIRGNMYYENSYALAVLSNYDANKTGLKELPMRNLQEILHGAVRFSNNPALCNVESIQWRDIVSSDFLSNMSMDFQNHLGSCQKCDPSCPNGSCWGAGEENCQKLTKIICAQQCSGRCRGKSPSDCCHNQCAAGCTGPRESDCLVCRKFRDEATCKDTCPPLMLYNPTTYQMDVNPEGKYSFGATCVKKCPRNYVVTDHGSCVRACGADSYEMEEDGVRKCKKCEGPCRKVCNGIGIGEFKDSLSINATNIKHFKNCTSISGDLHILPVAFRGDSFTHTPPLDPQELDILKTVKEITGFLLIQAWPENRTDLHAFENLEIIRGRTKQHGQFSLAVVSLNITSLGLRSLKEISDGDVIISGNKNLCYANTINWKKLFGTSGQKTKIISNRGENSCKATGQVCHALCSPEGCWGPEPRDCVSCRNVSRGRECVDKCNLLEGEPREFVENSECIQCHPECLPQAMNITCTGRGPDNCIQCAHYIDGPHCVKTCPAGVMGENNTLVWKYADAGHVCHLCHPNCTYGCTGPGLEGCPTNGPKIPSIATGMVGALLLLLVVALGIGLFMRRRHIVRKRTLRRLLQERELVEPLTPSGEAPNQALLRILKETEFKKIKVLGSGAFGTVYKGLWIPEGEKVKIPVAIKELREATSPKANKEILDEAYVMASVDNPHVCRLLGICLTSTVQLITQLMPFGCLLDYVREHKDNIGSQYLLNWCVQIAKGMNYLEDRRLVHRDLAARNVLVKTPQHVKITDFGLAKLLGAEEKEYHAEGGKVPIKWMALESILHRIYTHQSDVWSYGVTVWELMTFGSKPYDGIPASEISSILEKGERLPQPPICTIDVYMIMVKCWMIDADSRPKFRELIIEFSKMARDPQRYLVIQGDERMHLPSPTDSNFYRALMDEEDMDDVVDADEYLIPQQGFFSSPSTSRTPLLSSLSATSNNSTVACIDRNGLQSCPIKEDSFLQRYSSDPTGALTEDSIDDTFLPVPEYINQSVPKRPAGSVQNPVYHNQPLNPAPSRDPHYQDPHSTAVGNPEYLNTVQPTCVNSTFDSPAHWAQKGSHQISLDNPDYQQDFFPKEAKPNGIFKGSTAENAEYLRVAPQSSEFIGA
Chain of AKT2 (P31751 whole entry): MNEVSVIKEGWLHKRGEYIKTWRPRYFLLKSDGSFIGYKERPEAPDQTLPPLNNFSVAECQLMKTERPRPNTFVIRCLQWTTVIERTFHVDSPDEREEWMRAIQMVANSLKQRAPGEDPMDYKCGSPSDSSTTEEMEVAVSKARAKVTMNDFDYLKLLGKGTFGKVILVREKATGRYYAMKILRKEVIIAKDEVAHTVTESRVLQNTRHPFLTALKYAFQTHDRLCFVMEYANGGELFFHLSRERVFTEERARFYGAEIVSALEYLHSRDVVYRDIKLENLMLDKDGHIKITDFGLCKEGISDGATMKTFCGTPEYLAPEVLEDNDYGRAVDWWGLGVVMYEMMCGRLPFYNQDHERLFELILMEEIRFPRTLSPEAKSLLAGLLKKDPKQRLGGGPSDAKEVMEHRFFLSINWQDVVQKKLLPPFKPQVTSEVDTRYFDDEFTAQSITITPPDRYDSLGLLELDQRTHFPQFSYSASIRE
Chain of LCK (P06239 whole entry): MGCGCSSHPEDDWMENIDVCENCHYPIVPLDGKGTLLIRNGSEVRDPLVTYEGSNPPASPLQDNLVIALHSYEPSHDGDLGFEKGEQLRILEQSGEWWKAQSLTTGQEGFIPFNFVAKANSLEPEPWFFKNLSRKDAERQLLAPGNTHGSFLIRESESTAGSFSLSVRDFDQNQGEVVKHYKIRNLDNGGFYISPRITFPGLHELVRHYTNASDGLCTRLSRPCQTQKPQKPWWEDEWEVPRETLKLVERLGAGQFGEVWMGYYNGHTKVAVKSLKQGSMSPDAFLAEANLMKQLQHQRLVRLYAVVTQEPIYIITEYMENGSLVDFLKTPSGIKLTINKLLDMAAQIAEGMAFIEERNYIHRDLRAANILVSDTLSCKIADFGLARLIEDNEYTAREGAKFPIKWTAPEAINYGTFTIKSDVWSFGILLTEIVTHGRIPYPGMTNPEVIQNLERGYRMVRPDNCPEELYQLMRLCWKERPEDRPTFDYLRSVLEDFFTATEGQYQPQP
Protocol for AKT2: as §5, §6
Protocol for EGFR: (§7) Therefore, we included the whole TEC, EGFR and JAK family in our screening, and the Src family and Lkb1, which also have a cysteine within the same sequence alignment.
as §6
Protocol for ERBB3: as §7, §6
Protocol for ERBB4: as §7, §6
Description for His6-hsBMX: response upon compound injection (t=0s), or upon washing (t=220s), on immobilized His6-
hsBMX surfaces. Compound concentrations injected on already saturated surfaces were not
included in the 1:1 Langmuir fitting model. X-axis: time (s); y-axis: response (arbitrary units).
Inset plots [x-axis: compound concentration (M); y-axis: response (arbitrary units)] show the
steady-state affinity (KDss) fit for the interactions wherein equilibrium was reached.
Surface Plasmon Resonance:
The kinetic and affinity parameters of protein-compound interaction were evaluated by SPR.
Experiments were carried out in a Biacore 4000 instrument (Biacore AB, GE Healthcare Life
Sciences, Uppsala, Sweden) at 25 °C. His6-BMX protein was diluted to 10 µg/mL in sodium
acetate pH 5.5, in the presence of 5 µM staurosporine and immobilized onto CM5 (Series S)
sensor chips, using the standard amine coupling procedure. Prior to immobilization, the
carboxymethylated surface of the chip was activated with 400 mM 1-ethyl-3-(3-
dimethylaminopropyl)-carbodiimide and 100 mM N-hydroxysuccinimide for 10 min. HBS-N
(10 mM HEPES pH7.4, 150mM NaCl) was used as the background buffer. Protein was coupled
to the surface after 2 to 10 min injection times, at a flow rate of 10 µL/min, in order to reach
1500 to 3500 response units (RU). The remaining activated carboxymethylated groups were
blocked with a 7 min injection of 1 M ethanolamine pH 8.5. Compounds were pre-diluted in
DMSO to 50x the desired highest tested concentration and diluted afterwards in running buffer
(20 mM HEPES pH 7.4, 150 mM NaCl, 1 mM DTT, 0.1 mM EGTA, 0.05 % (v/v) TWEEN-
20, 5 mM MgCl2) in order to reach 2% of DMSO concentration. A DMSO solvent correction
(1% - 3%) was performed to account for variations in bulk signal and to achieve high-quality
data. Each compound was injected over immobilized His6-BMX for 220 s (30 µL min-1;
association phase) followed by 600 to 2000 s of buffer flow (dissociation phase) at a maximum
five times in 2-fold dilution series. All sensorgrams were processed by first subtracting the
binding response recorded from the control surface (reference spot), followed by subtracting
the buffer blank injection from the reaction spot. All datasets were fit to a simple 1:1 Langmuir
interaction model with the provided Biacore 4000 Evaluation software, to determine kinetic rate constants (kon, koff) or steady-state affinity (KDss).
Protocol for LCK: as §7, §6
Protocol for MTOR: as §5, §6
Protocol for PC3 cells: as §1, §2, §3, §4

On to `C=CC(=O)Nc1cc(C)cc(-n2c(=O)ccc3cnc4cc(-c5ccc(NS(C)(=O)=O)cc5)ccc4c32)c1` [JS25], for which the IC50 on BMX (setting [7]) worked out at 0.0035 µM; on BTK it was 0.0058 ± 4e-05 µM. Besides, the solubility in data set [1] was found to be 0.1 µM (≈ 0.0525 µg/mL). In addition, the “Average Tm of BMX with compound” value in [2] (100 μM compound) worked out at 61.43±0.48 °C. In addition, the ΔTm at 100 µM in [2] was determined as 9.3 ± 0.48 °C. In addition, the GI50 with LNCaP cells [3] was 6.6 µM; in the data set with PC3 cells (PC-3, 96 h), 12.1 ± 0.7 µM. Moreover, the cell viability reduction with LNCaP cells [4] turned out to be 63%. In addition, the “decrease in cell viability” value in the data set on LNCaP cells [4] (setting [8]) came out at 59%. In addition, the PAMPA/%R membrane retention in [5] is given as 10±18%. The Papp was determined as 3.8 ×10⁻⁶ cm/s in the data set “in vitro” (pH 6.8, PAMPA permeability) and 3.8 ± 1.6 ×10⁻⁶ cm/s in “in vitro” (setting [9]). The remaining binding at 1 µM at EGFR amounted to 87%; on ERBB3, 91%; at ERBB4, 66%; in [6] it was 21%; at LCK, 80%; on MTOR it was 100%. For the same molecule, the remaining binding at 1 µM at AKT2 turned out to be 94%.

For the molecule `C=CC(=O)Nc1cc(-n2c(=O)ccc3cnc4cc(-c5ccc(NS(C)(=O)=O)cc5)ccc4c32)ccc1C` [JS24], the IC50 at BMX (Experiment 2 of Fig. S3, control commercial BMX-IN-1, read-out: BMX IC50) came out at 0.0041 ± 0.0003 µM; on BMX (setting [7]), 0.0075 µM; at BTK, 0.0111 ± 0.0008 µM. For the same molecule, the “LE (BMX)” value on BMX (ligand efficiency) worked out at 0.29. Besides, at BMX (lipophilic efficiency), the “LipE (BMX)” value was 4.17. In addition, the solubility in [1] came to 1 µM (≈ 0.525 µg/mL). Also, the ΔTm at 100 µM in data set [2] (100 μM compound, versus apo-BMX) was determined as 11.34 ± 0.01 °C. Besides, the “Average Tm of BMX with compound” value in data set [2] (100 μM compound) came to 63.57±0.01 °C. This molecule showed an off-rate (koff) at His6-hsBMX of less than 0.0001 s⁻¹. Besides, the kon on His6-hsBMX was 140000 M⁻¹ s⁻¹. In addition, the GI50 turned out to be 1.5 µM with LNCaP cells [3] (96-well plates, mean of three experiments in triplicate); 11.4 ± 4.1 µM in the data set with PC3 cells (PC-3, 96 h, 96-well plates, N.d. = no growth inhibition observed within the concentrations tested); 5.12 ± 0.12 µM in the data set on Kasumi. Besides, the “decrease in cell viability” value was determined as 48% in the data set with LNCaP cells [4] (co-treatment with AKT1/2 (1 μM), relative to control AKT1/2) and 35% in the data set on LNCaP cells [4] (setting [8]). The cell viability reduction with LNCaP cells [4] worked out at 44%. Also, the PAMPA/%R membrane retention in data set [5] is given as 13±1%. Besides, the Papp amounted to 6.8 ×10⁻⁶ cm/s in “in vitro” (pH 6.8, PAMPA permeability) and 6.8 ± 0.4 ×10⁻⁶ cm/s in “in vitro” (setting [9]). For the same molecule, the “BTK potency gain (fold) relative to BMX-IN-1” value on BTK is on record as 33 fold. The “LE (BTK)” value on BTK (ligand efficiency) worked out at 0.29. Further, the “LipE (BTK)” value at BTK (lipophilic efficiency) was found to be 4.00.
